The text below walks through data of patent publication US20120115895A1, “TRICYCLIC INDOLE-DERIVED SPIRO DERIVATIVES AS CRTH2 MODULATORS” (Merck Serono S.A., priority 2009, published 2012).

Structures are written as SMILES.

The nature of data set [1]: In vivo pharmacokinetic evaluation in mouse. Further details: species or system C57BL/6 female mice. The note with it: for Cmax: female, C57BL/6, mouse, plasma, po, 5 mg/Kg; for Cmax / Fz in mice: mice; for Fz in mice: oral bioavailability, 5 mg/kg po, 1 mg/kg i.v. The procedure: (§1) In order to study the pharmacokinetic (PK) profile of test compounds in vivo, Sprague Dawley male rats or C57BL/6 female mice were dosed intravenously or after oral gavage. For both species, test compounds were dosed in solution at 1 mg/kg for i.v. route (10% ethanol, 10% N,N-dimethylacetamide, 30% propylene glycol, 50% water, v/v) and in suspension at 5 mg/kg (0.5% carboxymethylcellulose suspension, containing 0.25% Tween 20 in water) for oral gavage. PK profile in rat was obtained from 3 animals per dosing route and mouse PK profile was determined from 3 animals for each time points. The volume of administration was 2 mL/kg for i.v. dosing in both species and either 5 mL/kg (rat) or 10 mL/kg (mouse) for oral gavage. Blood samples (100 µL/time point) were collected at 0.083 (5 min), 0.25, 0.5, 1, 4, 7 and 24 hours post-dose for i.v. dosing, and at 0.5, 1, 4, 7 and 24 h for oral dosing, into heparin-Li+ containing tubes. For rats, all blood samples were collected trough a catheter in the carotid artery (placed in the artery the day before the experiment), under light isoflurane anesthesia, and stored on ice until centrifugation and plasma isolation. For mouse, blood samples were collected from intracardiac puncture at sacrifice at each time point and processed as described above for the rat. Plasma samples were stored frozen until analysis (−20° C. to −70° C.). For bioanalysis, samples were processed by protein precipitation (acetonitrile, formic acid 0.1%, addition of 3 volumes) after addition of one internal standard and analysed using a sensitive and selective LC/MS/MS method. An aliquot of the resulting supernatant was subject to LC/MS/MS analysis using a reverse phase column (Waters Xterra, C8, (3.5 μm particle size, 2.1×50 mm) and a short gradient (1 min) from (Solvent A) 85% water, 15% acetonitrile and 0.1% formic acid to (Solvent B) 90% acetonitrile, 10% water and 0.1% formic acid followed by isocratic conditions of Solvent B for 3.5 min at 0.4 mL/min. Column effluent was monitored using a Sciex API 4000 triple quadrupole mass spectrometer with a Turbo V electrospray ion source. Unknown concentrations of test compounds were determined using a calibration curve ranging from 1 to 3000 ng/mL.

The nature of data set [2]: In vivo pharmacokinetic evaluation in rat. Further details: species or system Sprague Dawley male rats. The note with it: for Cmax: male, Sprague Dawley, plasma, po, 5 mg/Kg; for Cmax / Fz in rats: rats; for Fz in rats: oral bioavailability, 5 mg/kg po, 1 mg/kg i.v. The procedure: as §1
The subject of data set [3] is OVA-induced eosinophil recruitment in lung. Put plainly: OVA-induced lung eosinophilia in mice. In kind it is in vivo, BALB/c mice. The settings on record: oral route, dose of 30 mg/Kg. The procedure:
BALB/c mice (6-8 weeks old) were immunized with ovalbumin (10 μg i.p) on day 0 and 7. In order to elicit a local inflammatory response in the lung, mice were challenged between day's 15-17 with a nebulised solution of ovalbumin (10 μg/ml; De Vilibiss Ultraneb 2000, once daily for 30 min during the 3 days). On each separate day between 15 and 17 each animal received via oral gavage the test compound, at t−1 h and t+7 h with respect to OVA exposure at t=0 h. Eight hours after the final OVA challenge, bronchoalveolar lavage (BAL) was then carried out. Total cell numbers in the BAL fluid samples were measured using a haemocytometer. Cytospin smears of the BAL fluid samples were prepared by centrifugation at 1200 rpm for 2 min at room temperature and stained using a DiffQuik stain system (Dade Behring) for differential cell counts.

Data set [4] addresses T1, CRTH2 (Homo sapiens, UniProt Q9Y5Y4).
T1 sequence (Q9Y5Y4 1-395): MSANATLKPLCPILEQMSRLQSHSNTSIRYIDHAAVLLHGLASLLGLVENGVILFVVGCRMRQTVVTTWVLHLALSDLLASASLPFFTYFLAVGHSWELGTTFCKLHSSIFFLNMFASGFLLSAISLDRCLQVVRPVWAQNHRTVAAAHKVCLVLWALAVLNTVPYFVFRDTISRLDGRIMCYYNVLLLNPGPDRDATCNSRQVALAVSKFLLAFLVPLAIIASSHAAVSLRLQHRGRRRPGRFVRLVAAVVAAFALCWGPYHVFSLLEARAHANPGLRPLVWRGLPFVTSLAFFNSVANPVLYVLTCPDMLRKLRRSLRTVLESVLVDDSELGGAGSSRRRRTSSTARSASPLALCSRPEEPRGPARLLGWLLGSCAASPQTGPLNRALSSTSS
Put plainly: Radioligand binding Scintillation Proximity Assay ([3H]PGD2, hCRTH2-CHO cell membranes). Further details: host or cells: CHO cells. The procedure: Adherent CHO cells expressing hCRTH2 (Euroscreen, Belgium) were cultured in 225 cm2 cell culture flasks (Corning, USA) in 30 ml of medium. After two rinses of phosphate buffered saline (PBS), cells were harvested in 10 ml of PBS containing 1 mM EDTA, centrifuged at 500×g for 5 min at 4° C. and frozen at −80° C. The pellet was re-suspended in 50 mM Tris-HCl, pH 7.4, 2 mM EDTA, 250 mM Sucrose, containing protease inhibitor cocktail tablets, (Complete EDTA-free, Roche, Germany) and incubated 30 min at 4° C. Cells were disrupted by nitrogen cavitation (Parr Instruments, USA) at 4° C. (800 p.s.i. for 30 min), and centrifuged at 500×g for 10 min at 4° C. Pellet containing nuclei and cellular debris was discarded and supernatant was centrifuged 60 min at 4° C. at 45000×g. Membrane pellet was re-suspended in storage buffer (10 mM HEPES/KOH pH 7.4, 1 mM EDTA, 250 mM sucrose, protease inhibitor cocktail tablets) using Dounce homogenization and frozen in liquid nitrogen, and stored at −80° C.
The inhibitory activity can be investigated by a radioligand binding Scintillation Proximity Assay (SPA) (Sawyer et al., Br. J. Pharmocol 2002, 137, 1163-72). The SPA radioligand binding assay was performed at room temperature in binding buffer (10 mM HEPES/KOH pH 7.4, 10 mM MnC12, with protease inhibitor cocktail tablets), containing 1.5 nM [3H]PGD2 (Perkin Elmer), 10-50 μg/ml of hCRTH2—CHO cell membrane protein and 2 mg/ml of Wheat-germ agglutinin Scintillation Proximity Assay beads (RPNQ0001, GE-Healthcare) in a final volume of 100 μl in 96 well plates (Corning, USA). Non-specific binding was determined in the presence of 10 μM PGD2 (Cayman, USA). Competing Compounds of Formula (I) were diluted in dimethylsulphoxide so that the total volume of dimethylsulfoxide was kept constant at 1% dimethylsulphoxide (Me2SO). Serial dilutions of 100 μM to 100 pM were prepared and 10 μl each of the compounds of Formula (I) stock solutions were added to the binding assay reagents and incubated for 90 min with agitation at room temperature. Binding activity was determined by using a 1450 Micro-beta scintillation counter (Wallac, UK).
(In a scintillation proximity assay essentially only radioactivity close to the scintillant gives light.)

The target of data set [5] is T1, CRTH2. Put plainly: PGD2-induced eosinophil cell shape assay in human whole blood. It is filed as cell-based. The note with it: 10 nM PGD2. Further details: endogenous in cells; host or cells: eosinophils in human whole blood from healthy volunteers. The procedure:
The test compounds were diluted in dimethylsulphoxide so that the total volume of dimethylsulfoxide was kept constant at 2% dimethylsulphoxide (Me2SO). Serial dilutions of 200 μM to 0.09 μM were prepared. Samples of 90 μl of human blood from healthy volunteers (Centre de Transfusion Sanguine de Genève) were pre-incubated in polypropylene Falcon tubes (BD 352063) for 20 minutes in a water bath at 37° C. with 10 μl of diluted compounds. For CRTH2 activation, 100 μl PGD2 (Cayman 12010) at 20 nM was added (10 nM final) to each tube and cells were maintained at 37° C. For negative control cells were treated with PBS. After 10 minutes, cell activation was stopped with 120 μl Formaldehyde 10% (4% final, Fluka 41650) and cells were rested for 10 minutes at room temperature. Fixed cells were transferred into polypropylene tubes and then treated for 1 hour in a water bath at 37° C. with 2 ml of Triton—Surfact-Amps X-100 (Pierce 28314) at 0.166% (0.13% Triton final). After several washes with PBS (red cells lysed progressively during washes, two washes are necessary), cells were analyzed by flow cytometry on a FACSCalibur.

[6] abbreviates: comparison table with (+)-Enantiomer, read-out: Binding IC50.

On to `CN1C(=O)N(Cc2cc(Cl)ccc2F)C(=O)C12C(=O)N(CC(=O)O)c1ccc(Cl)cc12` (single isomer, unassigned; (+)) [Example 2, (+)-[5′-chloro-1-(5-chloro-2-fluorobenzyl)-3-methyl-2,2′,5-trioxospiro[imidazolidine-4,3′-indol]-1′(2′H)-yl]acetic acid], for which the Cmax (as a rule, the highest concentration seen after dosing) in data set [1] came out at 691 ng/mL; in data set [2] (rat), 489 ng/mL. In data set [1] (mouse, in words), the “oral bioavailability in mouse” value is “significant improvement”. The same compound gave a Fz in mice in data set [1] of 39%. The same compound came in with a Fz in rats in data set [2] of 37%. Besides, the “oral bioavailability in rat” value in data set [2] (rat, in words) is “significant improvement”. The “inhibition of OVA-induced eosinophil recruitment in lung” value in data set [3] was found to be 79%. Besides, the IC50 (commonly the concentration that gives 50% inhibition) on CRTH2 [4] (1.5 nM [3H]PGD2, hCRTH2-CHO membranes, SPA, read-out: IC50 binding) amounted to 45 nM; on CRTH2 [4] (setting [6]), 68 nM; on CRTH2 [5], 150 nM.

`O=C(O)CN1C(=O)C2(NC(=O)N(Cc3cc(Cl)ccc3F)C2=O)c2cc(Cl)ccc21` (single isomer, unassigned; (+)) [(+)-Enantiomer, (+)-[5′-Chloro-1-(5-chloro-2-fluorobenzyl)-2,2′,5-trioxospiro[imidazolidine-4,3′-indol]-1′(2′H)-yl]acetic acid, reference compound]: the values for the Cmax in data set [1] and in data set [2] (rat) were 113 ng/mL and 151 ng/mL, respectively. This compound also showed a Fz in mice in data set [1] of 6%. The same compound gave a Fz in rats in data set [2] of 5.3%. The IC50 was 21 nM at CRTH2 [4] (setting [6]) and 50 nM on CRTH2 [5]. For the same compound, the “activity on DP2” value at CRTH2 [4] (first eluting enantiomer compared with second eluting enantiomer) is listed as “better activity”.
